Laboratory results from patent US9113629B2, “4-amino-6-(4-substituted-phenyl)-picolinates and 6-amino-2-(4-substituted-phenyl)-pyrimidine-4-carboxylates and their use as herbicides” (DOW AGROSCIENCES LLC, priority 2013, dated 2015).
Like-named read-outs stand apart in the source and are kept apart here.

Experiments:
[1] = system: Key Broadleaf Weed and Crop Species; assay: Post-emergent Test II herbicidal activity (Table 5); type: in vivo; details: post-emergence, 336 h, 14 days after application; for pest or weed control at 66 g/ha: application rate 66 g ai/ha; for pest or weed control at 132 g/ha: application rate 132 g ai/ha
How it was run: (§1)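 Plants grown in Metro-Mix 360 (pH 6.0–6.8) in a greenhouse (~15 h photoperiod, 23–29 °C day) to first or second true leaf stage, then sprayed with compound in acetone/DMSO/aqueous crop-oil-surfactant carrier at 187 L/ha by track sprayer. Injury visually scored 0–100% versus untreated plants after 14 d.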

[2] = system: Key Grass and Sedge Weeds as well as Grass Crops; assay: Post-emergent Test II herbicidal activity (Table 6); type: in vivo; details: post-emergence, 336 h; for pest or weed control at 66 g/ha: 66 g ai/ha; for pest or weed control at 132 g/ha: 132 g ai/ha
How it was run: as §1

[3] = ABUTH: velvetleaf (Abutilon theophrasti), read-out: Visual Growth Reduction (%) 14 Days After Application, ABUTH
[4] = AMARE: redroot pigweed (Amaranthus retroflexus), read-out: Visual Growth Reduction (%) 14 Days After Application, AMARE
[5] = BRSNN: oilseed-rape, canola (Brassica napus), read-out: Visual Growth Reduction (%) 14 Days After Application, BRSNN
[6] = CHEAL: lambsquarters (Chenopodium album), read-out: Visual Growth Reduction (%) 14 Days After Application, CHEAL
[7] = EPHHL: wild poinsettia (Euphorbia heterophylla), read-out: Visual Growth Reduction (%) 14 Days After Application, EPHHL
[8] = HELAN: sunflower (Helianthus annuus), read-out: Visual Growth Reduction (%) 14 Days After Application, HELAN
[9] = VIOTR: wild pansy (Viola tricolor), read-out: Visual Growth Reduction (%) 14 Days After Application, VIOTR
[10] = CYPES: yellow nutsedge (Cyperus esculentus), read-out: Visual Growth Reduction (%) 14 Days After Application, CYPES
[11] = DIGSA: crabgrass (Digitaria sanguinalis), read-out: Visual Growth Reduction (%) 14 Days After Application, DIGSA
[12] = ECHCG: barnyardgrass (Echinochloa crus-galli), read-out: Visual Growth Reduction (%) 14 Days After Application, ECHCG
[13] = ORYSA: rice (Oryza sativa), crop, read-out: Visual Growth Reduction (%) 14 Days After Application, ORYSA
[14] = SETFA: giant foxtail (Setaria faberi), read-out: Visual Growth Reduction (%) 14 Days After Application, SETFA
[15] = SORVU: grain sorghum (Sorghum vulgare), read-out: Visual Growth Reduction (%) 14 Days After Application, SORVU
[16] = TRZSS (wheat, Triticum aestivum), crop, read-out: Visual Growth Reduction (%) 14 Days After Application, TRZSS
[17] = ZEAMX: maize, corn (Zea mays), crop, read-out: Visual Growth Reduction (%) 14 Days After Application, ZEAMX

COC(=O)c1nc(-c2ccc(C)c(F)c2)c(F)c(N)c1Cl [Compound 213]
45 to 59%: pest or weed control at 132 g/ha [2, 10]
0 to 29%: pest or weed control at 66 g/ha [1, 9] | pest or weed control at 132 g/ha [1, 9] | pest or weed control at 66 g/ha [2, 10] | pest or weed control at 66 g/ha [2, 11] | pest or weed control at 132 g/ha [2, 11] | pest or weed control at 66 g/ha [2, 13] | pest or weed control at 132 g/ha [2, 13] | pest or weed control at 66 g/ha [2, 14] | pest or weed control at 132 g/ha [2, 14] | pest or weed control at 66 g/ha [2, 16] | pest or weed control at 132 g/ha [2, 16]
60 to 74%: pest or weed control at 66 g/ha [2, 17]
127 °C: melting point
75 to 84%: pest or weed control at 66 g/ha [2, 15] | pest or weed control at 132 g/ha [2, 17]
95 to 100%: pest or weed control at 66 g/ha [1, 3] | pest or weed control at 132 g/ha [1, 3] | pest or weed control at 66 g/ha [1, 4] | pest or weed control at 132 g/ha [1, 4] | pest or weed control at 66 g/ha [1, 6] | pest or weed control at 132 g/ha [1, 6] | pest or weed control at 66 g/ha [1, 7] | pest or weed control at 132 g/ha [1, 7] | pest or weed control at 66 g/ha [1, 8] | pest or weed control at 132 g/ha [1, 8] | pest or weed control at 132 g/ha [2, 15]
85 to 94%: pest or weed control at 66 g/ha [1, 5] | pest or weed control at 132 g/ha [1, 5] | pest or weed control at 66 g/ha [2, 12] | pest or weed control at 132 g/ha [2, 12]
